Data as given in patent publication US5043450A, “8-alkoxyquinolonecarboxylic acid and salts thereof” (priority 1986, dated 1991).
Converted amounts (≈) assume the structure as drawn.

How the values were obtained:
Type in all cases: cell-based
[1] = test system: C. ramosum; assay: Antibacterial spectra, MIC; details: Thomasclavelia ramosa
[2] = test system: Acinetobacter anitratus IID 876; assay: Antibacterial spectra, MIC; details: Acinetobacter calcoaceticus, IID876
[3] = test system: B. thetaiotaomicron (0661); assay: Antibacterial spectra, MIC; details: Bacteroides thetaiotaomicron
[4] = test system: Escherichia coli NIHJ JC-2; assay: Antibacterial spectra, MIC; details: NIHJJC2
[5] = test system: P. maltophilia GIFU 2491; assay: Antibacterial spectra, MIC; details: Stenotrophomonas maltophilia, GIFU2491
[6] = test system: Clostridium difficile I-E; assay: Antibacterial spectra, MIC; details: Clostridioides difficile
[7] = test system: Fusobacterium mortiferum 4249; assay: Antibacterial spectra, MIC
[8] = test system: Enterobacter cloacae IID 977; assay: Antibacterial spectra, MIC; details: IID977
[9] = test system: Veillonella parvula KYA 10790; assay: Antibacterial spectra, MIC; details: KYA10790
[10] = test system: F. necrophorum S-45; assay: Antibacterial spectra, MIC; details: Fusobacterium necrophorum, S45
[11] = test system: S. epidermidis IID 866; assay: Antibacterial spectra, MIC; details: Staphylococcus epidermidis, IID866
[12] = test system: Pseudomonas aeruginosa V-1; assay: Antibacterial spectra, MIC; details: V1
[13] = test system: P. aeruginosa IFO 12689; assay: Antibacterial spectra, MIC; details: Pseudomonas aeruginosa, IFO12689
[14] = test system: K. pneumoniae 1-220S; assay: Antibacterial spectra, MIC; details: Klebsiella pneumoniae, 1220S
[15] = test system: Propionibacterium acens 11828; assay: Antibacterial spectra, MIC
[16] = test system: P. cepacia GIFU 518; assay: Antibacterial spectra, MIC; details: Burkholderia cepacia, GIFU518
[17] = test system: Bacteroides fragilis GM 7000; assay: Antibacterial spectra, MIC; details: GM7000
[18] = test system: B. fragilis 25285; assay: Antibacterial spectra, MIC; details: Bacteroides fragilis
[19] = test system: S. aureus Smith; assay: Antibacterial spectra, MIC; details: Staphylococcus aureus
[20] = test system: P. aeruginosa IID 1210; assay: Antibacterial spectra, MIC; details: Pseudomonas aeruginosa, IID1210
[21] = test system: Eubacterium lentum GAI 5242; assay: Antibacterial spectra, MIC; details: Eggerthella lenta, GAI5242
[22] = test system: Peptostreptococcus anaerobius KYA 27337; assay: Antibacterial spectra, MIC; details: KYA27337
[23] = test system: Morganella morganii IID 602; assay: Antibacterial spectra, MIC; details: IID602
[24] = test system: F. varium KYA 8501; assay: Antibacterial spectra, MIC; details: Fusobacterium varium, KYA8501
[25] = test system: Klebsiella pneumoniae KY(GN)6445; assay: Antibacterial spectra, MIC
[26] = test system: B. fragilis 0558; assay: Antibacterial spectra, MIC; details: Bacteroides fragilis
[27] = test system: Salmonella enteritidis IID 604; assay: Antibacterial spectra, MIC; details: Salmonella enterica
[28] = test system: Bacilus subtilis PCI 219; assay: Antibacterial spectra, MIC; details: Bacillus subtilis, PCI219
[29] = test system: Citrobacter freundii IID 976; assay: Antibacterial spectra, MIC; details: IID976
[30] = test system: P. mirabilis IID 994; assay: Antibacterial spectra, MIC; details: Proteus mirabilis, IID994
[31] = test system: C. perfringens KYA 13123; assay: microbe, parasite or virus in culture; details: Clostridium perfringens, KYA13123
[32] = test system: Peptococcus magnus KY 017; assay: Antibacterial spectra, MIC; details: Finegoldia magna, KY017
[33] = test system: Pst. micros UPI 5464-1; assay: Antibacterial spectra, MIC; details: Parvimonas micra, UPI54641
[34] = test system: Alcaligenes faecalis 0114002; assay: Antibacterial spectra, MIC
[35] = test system: Yersinia enterocolitica IID 981; assay: Antibacterial spectra, MIC; details: IID981
[36] = test system: B. vulgatus KYA 29327; assay: Antibacterial spectra, MIC; details: Phocaeicola vulgatus, KYA29327
[37] = test system: Shigella sonnei IID 969; assay: Antibacterial spectra, MIC; details: IID969, 10^6 cells/ml, Gram -
Procedure: (§1) The antibacterial test was carried out according to the method designated by Japan Society of Chemotherapy.

[38] = test system: Proteus vulgaris IFO 3167; assay: Antibacterial spectra, MIC; details: IFO3167, 10^6 cells/ml, Gram -
Procedure: as §1

[39] = test system: E. coli ML 4707; assay: Antibacterial spectra, MIC; details: Escherichia coli, ML4707; 10^6 cells/ml; Gram -
Procedure: as §1

[40] = test system: B. distasonis 8503; assay: Antibacterial spectra, MIC; details: Parabacteroides distasonis
[41] = test system: S. aureus IID 670 (Terajima); assay: Antibacterial spectra, MIC; details: Staphylococcus aureus, IID670
[42] = test system: Staphylococcus aureus 209 P; assay: Antibacterial spectra, MIC
[43] = test system: E. coli ATCC 10536; assay: Antibacterial spectra, MIC; details: Escherichia coli, ATCC10536
[44] = test system: Serratia marcescens IID 618; assay: Antibacterial spectra, MIC; details: IID618

COc1c(N2CCNC(C)C2)c(F)cc2c(=O)c(C(=O)O)cn(C3CC3)c12 (stereo not shown) [Exp. 3, 1-cyclopropyl-6-fluoro-1,4-dihydro-8-methoxy-7-(3-methyl-1-piperazinyl)-4-oxo-3-quinolinecarboxylic acid]
MIC [1]: 3.13 µg/mL (≈ 8.34 µM)
MIC [2]: 0.1 µg/mL (≈ 0.266 µM)
MIC [3]: 0.78 µg/mL (≈ 2.08 µM)
MIC [4]: ≤ 0.0063 µg/mL
MIC [5]: 0.2 µg/mL (≈ 0.533 µM)
MIC [6]: 3.13 µg/mL (≈ 8.34 µM)
MIC [7]: 0.78 µg/mL (≈ 2.08 µM)
MIC [8]: 0.05 µg/mL (≈ 0.133 µM)
MIC [9]: 0.2 µg/mL (≈ 0.533 µM)
MIC [10]: 0.39 µg/mL (≈ 1.04 µM)
MIC [11]: 0.1 µg/mL (≈ 0.266 µM)
MIC [12]: 0.2 µg/mL (≈ 0.533 µM)
MIC [13]: 1.56 µg/mL (≈ 4.16 µM)
MIC [14]: 0.05 µg/mL (≈ 0.133 µM)
MIC [15]: 6.25 µg/mL (≈ 16.6 µM)
MIC [16]: 1.56 µg/mL (≈ 4.16 µM)
MIC [17]: 0.39 µg/mL (≈ 1.04 µM)
MIC [18]: 0.39 µg/mL (≈ 1.04 µM)
MIC [19]: 0.1 µg/mL (≈ 0.266 µM)
MIC [20]: 1.56 µg/mL (≈ 4.16 µM)
MIC [21]: 0.2 µg/mL (≈ 0.533 µM)
MIC [22]: 0.39 µg/mL (≈ 1.04 µM)
MIC [23]: 0.1 µg/mL (≈ 0.266 µM)
MIC [24]: 6.25 µg/mL (≈ 16.6 µM)
MIC [25]: 0.025 µg/mL (≈ 0.0666 µM)
MIC [26]: 0.39 µg/mL (≈ 1.04 µM)
MIC [27]: 0.05 µg/mL (≈ 0.133 µM)
MIC [28]: 0.025 µg/mL (≈ 0.0666 µM)
MIC [29]: 0.025 µg/mL (≈ 0.0666 µM)
MIC [30]: 0.025 µg/mL (≈ 0.0666 µM)
MIC [31]: 0.39 µg/mL (≈ 1.04 µM)
MIC [32]: 0.2 µg/mL (≈ 0.533 µM)
MIC [33]: 0.2 µg/mL (≈ 0.533 µM)
MIC [34]: 0.39 µg/mL (≈ 1.04 µM)
MIC [35]: 0.05 µg/mL (≈ 0.133 µM)
MIC [36]: 0.78 µg/mL (≈ 2.08 µM)
MIC [37]: 0.0125 µg/mL (≈ 0.0333 µM)
MIC [38]: 0.025 µg/mL (≈ 0.0666 µM)
MIC [39]: 0.0125 µg/mL (≈ 0.0333 µM)
MIC [40]: 0.78 µg/mL (≈ 2.08 µM)
MIC [41]: 0.1 µg/mL (≈ 0.266 µM)
MIC [42]: 0.1 µg/mL (≈ 0.266 µM)
MIC [43]: 0.0125 µg/mL (≈ 0.0333 µM)
MIC [44]: 0.1 µg/mL (≈ 0.266 µM)

COc1c(N2CCC(CN)C2)c(F)cc2c(=O)c(C(=O)O)cn(C3CC3)c12 (stereo not shown) [Exp. 7, 7-(3-aminomethyl-1-pyrrolidinyl)-1-cyclopropyl-6-fluoro-1,4-dihydro-8-methoxy-4-oxo-3-quinolinecarboxylic acid]
MIC [1]: 0.78 µg/mL (≈ 2.08 µM)
MIC [2]: 0.05 µg/mL (≈ 0.133 µM)
MIC [3]: 0.39 µg/mL (≈ 1.04 µM)
MIC [4]: 0.025 µg/mL (≈ 0.0666 µM)
MIC [5]: 0.2 µg/mL (≈ 0.533 µM)
MIC [6]: 0.39 µg/mL (≈ 1.04 µM)
MIC [7]: 0.2 µg/mL (≈ 0.533 µM)
MIC [8]: 0.1 µg/mL (≈ 0.266 µM)
MIC [9]: 0.1 µg/mL (≈ 0.266 µM)
MIC [10]: 0.2 µg/mL (≈ 0.533 µM)
MIC [11]: 0.05 µg/mL (≈ 0.133 µM)
MIC [12]: 0.2 µg/mL (≈ 0.533 µM)
MIC [13]: 0.78 µg/mL (≈ 2.08 µM)
MIC [14]: 0.1 µg/mL (≈ 0.266 µM)
MIC [15]: 0.39 µg/mL (≈ 1.04 µM)
MIC [16]: 0.78 µg/mL (≈ 2.08 µM)
MIC [17]: 0.39 µg/mL (≈ 1.04 µM)
MIC [18]: 0.2 µg/mL (≈ 0.533 µM)
MIC [19]: 0.05 µg/mL (≈ 0.133 µM)
MIC [20]: 0.78 µg/mL (≈ 2.08 µM)
MIC [21]: 0.39 µg/mL (≈ 1.04 µM)
MIC [22]: 0.05 µg/mL (≈ 0.133 µM)
MIC [23]: 0.2 µg/mL (≈ 0.533 µM)
MIC [24]: 0.78 µg/mL (≈ 2.08 µM)
MIC [25]: 0.05 µg/mL (≈ 0.133 µM)
MIC [26]: 0.2 µg/mL (≈ 0.533 µM)
MIC [27]: 0.05 µg/mL (≈ 0.133 µM)
MIC [28]: 0.025 µg/mL (≈ 0.0666 µM)
MIC [29]: 0.05 µg/mL (≈ 0.133 µM)
MIC [30]: 0.05 µg/mL (≈ 0.133 µM)
MIC [31]: 0.2 µg/mL (≈ 0.533 µM)
MIC [32]: 0.05 µg/mL (≈ 0.133 µM)
MIC [33]: 0.1 µg/mL (≈ 0.266 µM)
MIC [34]: 0.39 µg/mL (≈ 1.04 µM)
MIC [35]: 0.1 µg/mL (≈ 0.266 µM)
MIC [36]: 0.39 µg/mL (≈ 1.04 µM)
MIC [37]: 0.05 µg/mL (≈ 0.133 µM)
MIC [38]: 0.05 µg/mL (≈ 0.133 µM)
MIC [39]: 0.05 µg/mL (≈ 0.133 µM)
MIC [40]: 0.78 µg/mL (≈ 2.08 µM)
MIC [41]: 0.025 µg/mL (≈ 0.0666 µM)
MIC [42]: 0.025 µg/mL (≈ 0.0666 µM)
MIC [43]: 0.05 µg/mL (≈ 0.133 µM)
MIC [44]: 0.2 µg/mL (≈ 0.533 µM)
